Laboratory results from patent US20250353873A1, “COMPOUNDS AND METHODS FOR MODULATING APOE EXPRESSION” (Ionis Pharmaceuticals, Inc., priority 2024, published 2025).
Strand notation (5' to 3'): a small letter for the sugar, then the base; units joined by * are phosphorothioate-linked, units joined directly phosphodiester-linked; [ ] holds rarer units or linkages, { } end groups; capitals alone tell only the bases. [ms] = mesyl phosphoramidate linkage; e = 2'-O-(2-methoxyethyl) (MOE); k = constrained ethyl (cEt); [5mC] = 5-methylcytosine; d = 2'-deoxy (DNA)

How the values were obtained:
human APOE RNA [1] = experiment: Dose-dependent reduction of human APOE RNA in HepG2 cells, electroporation, 20,000 cells per well, average of GAPDH- and PPIA-normalized results (Example 4, Table 12); type: cell-based; details: HepG2, 20,000 cells per well; for IC50: approximately 24 hours
Summary of the method: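 Modified oligonucleotides at various concentrations were electroporated into HepG2 cells. APOE RNA was quantified by RT-qPCR, normalized separately to GAPDH and PPIA, and the two averaged as % of untreated control; IC50 was calculated from the dose series.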

human APOE RNA [2] = experiment: Dose-dependent inhibition of human APOE RNA in differentiated SH-SY5Y cells, free uptake, 5 days (Example 5); type: cell-based; details: 5 days (Table 14)
Summary of the method: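 Differentiated SH-SY5Y cells (10,000/well) treated by free uptake with graded oligonucleotide concentrations for 5 days. APOE RNA quantified with primer probe set RTS3073, normalized to PPIA, expressed as % untreated control; IC50 calculated.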

human APOE RNA [3] = experiment: Activity in APOE C57BL/6NTac-Apoeem7250 knock-in mice, single ICV bolus, 4 weeks (Example 10); type: in vivo; details: single ICV bolus 300 μg, 4 weeks post treatment, normalized to mouse Ppia
Summary of the method: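 Knock-in mice (2–4 per group) received one 300 μg ICV bolus of oligonucleotide or PBS. After four weeks, human APOE RNA in cortex and spinal cord measured by RT-qPCR (primer probe set RTS3073), normalized to mouse Ppia, expressed as % of PBS controls.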

human APOE RNA [4] = experiment: Activity in APOE C57BL/6NTac-Apoeem7250 knock-in mice, single ICV bolus, 8 weeks (Example 11); type: in vivo; details: single ICV bolus 300 μg, 8 weeks post treatment, normalized to mouse Ppia
Summary of the method: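 Human APOE knock-in C57BL/6NTac mice given one ICV bolus of 300 μg oligonucleotide; PBS-dosed group as control. At 8 weeks, cortex and spinal cord RNA measured by qRT-PCR (human probe RTS3073), normalized to mouse Ppia, expressed as % of PBS control.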

human APOE RNA [5] = experiment: Potency (dose response, ED50) in APOE C57BL/6NTac-Apoeem7250 knock-in mice, 4 weeks (Example 14); type: in vivo; details: for ED 50 (μg) Cortex / ED 50 (μg) Spinal Cord: single ICV bolus, GraphPad Prism 10
Summary of the method: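 Knock-in mice (3–4 per group) received a single ICV bolus of oligonucleotide, with PBS as control. At four weeks, cortex and spinal cord RNA was analysed by RT-qPCR with a human primer probe set, normalized to mouse Ppia, and expressed as % PBS control. ED50 was calculated from the dose response.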

Substance	APOE RNA (% UTC) (human APOE RNA [1]; 5 nM)	APOE RNA (% UTC) (human APOE RNA [1]; 13 nM)	APOE RNA (% UTC) (human APOE RNA [1]; 33 nM)	APOE RNA (% UTC) (human APOE RNA [1]; 82 nM)	APOE RNA (% UTC) (human APOE RNA [1]; 205 nM)	APOE RNA (% UTC) (human APOE RNA [1]; 512 nM)	APOE RNA (% UTC) (human APOE RNA [1]; 1,280 nM)	APOE RNA (% UTC) (human APOE RNA [1]; 3,200 nM)	APOE RNA (% UTC) (human APOE RNA [1]; 8,000 nM)	APOE RNA (% UTC) (human APOE RNA [1]; 20,000 nM)	IC50 (human APOE RNA [1]) [µM]	APOE RNA (% UTC) (human APOE RNA [2]; 5 nM)	APOE RNA (% UTC) (human APOE RNA [2]; 13 nM)	APOE RNA (% UTC) (human APOE RNA [2]; 33 nM)	APOE RNA (% UTC) (human APOE RNA [2]; 82 nM)	APOE RNA (% UTC) (human APOE RNA [2]; 205 nM)	APOE RNA (% UTC) (human APOE RNA [2]; 512 nM)	APOE RNA (% UTC) (human APOE RNA [2]; 1,280 nM)	APOE RNA (% UTC) (human APOE RNA [2]; 3,200 nM)	APOE RNA (% UTC) (human APOE RNA [2]; 8,000 nM)	also measured
1785598: modified oligonucleotide complementary to human APOE RNA (k[5mC]*kT*kT*dG[ms]dG[ms]dT[ms]dG[ms]dA[ms]dA[ms]dT*d[5mC]*dT*dT*dT*dA*dT[ms]kT*kA*dA[ms]kA; antisense) [compound 1785598]	103	97	88	75	56	36	23	9	11	11	0.29	72	59	90	57	59	39	23	23	9	APOE RNA (% UTC) (human APOE RNA [2]; 20,000 nM): 11 % UTC; IC50 (human APOE RNA [2]): 0.18 µM; APOE RNA (% control) Cortex (human APOE RNA [3]): 29 % control; APOE RNA (% control) Spinal Cord (human APOE RNA [3]): 40 % control; APOE RNA (% control) Cortex (human APOE RNA [4]): 23 % control; APOE RNA (% control) Spinal Cord (human APOE RNA [4]): 16 % control; APOE RNA (% control) Cortex (human APOE RNA [5]; ICV dose 10 μg): 104 % control; APOE RNA (% control) Cortex (human APOE RNA [5]; ICV dose 30 μg): 84 % control; APOE RNA (% control) Cortex (human APOE RNA [5]; ICV dose 100 μg): 60 % control; APOE RNA (% control) Cortex (human APOE RNA [5]; ICV dose 300 μg): 37 % control; APOE RNA (% control) Cortex (human APOE RNA [5]; ICV dose 700 μg): 23 % control; ED 50 (μg) Cortex (human APOE RNA [5]): 175.4 µg; APOE RNA (% control) Spinal Cord (human APOE RNA [5]; ICV dose 10 μg): 97 % control; APOE RNA (% control) Spinal Cord (human APOE RNA [5]; ICV dose 30 μg): 70 % control; APOE RNA (% control) Spinal Cord (human APOE RNA [5]; ICV dose 100 μg): 65 % control; APOE RNA (% control) Spinal Cord (human APOE RNA [5]; ICV dose 300 μg): 60 % control; APOE RNA (% control) Spinal Cord (human APOE RNA [5]; ICV dose 700 μg): 41 % control; ED 50 (μg) Spinal Cord (human APOE RNA [5]): 416.7 µg
1778131: modified oligonucleotide complementary to human APOE RNA (eA*e[5mC]eTeTeGkG*dT*dG[ms]dA[ms]dA*dT*d[5mC]*dT*dT*dT*dA[ms]kTkT*eA*eA; antisense) [compound 1778131]	102	86	85	70	56	36	25	25	5	6	0.29	69	103	89	69	64	31	45	55	25	APOE RNA (% UTC) (human APOE RNA [2]; 20,000 nM): 12 % UTC; IC50 (human APOE RNA [2]): 0.69 µM; APOE RNA (% control) Cortex (human APOE RNA [3]): 29 % control; APOE RNA (% control) Spinal Cord (human APOE RNA [3]): 49 % control; APOE RNA (% control) Cortex (human APOE RNA [4]): 29 % control; APOE RNA (% control) Spinal Cord (human APOE RNA [4]): 24 % control; APOE RNA (% control) Cortex (human APOE RNA [5]; ICV dose 10 μg): 115 % control; APOE RNA (% control) Cortex (human APOE RNA [5]; ICV dose 30 μg): 105 % control; APOE RNA (% control) Cortex (human APOE RNA [5]; ICV dose 100 μg): 61 % control; APOE RNA (% control) Cortex (human APOE RNA [5]; ICV dose 300 μg): 37 % control; APOE RNA (% control) Cortex (human APOE RNA [5]; ICV dose 700 μg): 29 % control; ED 50 (μg) Cortex (human APOE RNA [5]): 216.5 µg; APOE RNA (% control) Spinal Cord (human APOE RNA [5]; ICV dose 10 μg): 79 % control; APOE RNA (% control) Spinal Cord (human APOE RNA [5]; ICV dose 30 μg): 64 % control; APOE RNA (% control) Spinal Cord (human APOE RNA [5]; ICV dose 100 μg): 36 % control; APOE RNA (% control) Spinal Cord (human APOE RNA [5]; ICV dose 300 μg): 40 % control; APOE RNA (% control) Spinal Cord (human APOE RNA [5]; ICV dose 700 μg): 34 % control; ED 50 (μg) Spinal Cord (human APOE RNA [5]): 94.0 µg
